Assay results as given in patent US20060276464A1, “Diarylsulfone sulfonamides and use thereof” (Wyeth, priority 2005, published 2006).
“And” between values parts separate entries of the source, which are not always exact repeats. Identical values can stand only once. Like-named read-outs stand apart in the source and are kept apart here.

What was measured:
[1] = biological target: T1, SFRP-1 (Homo sapiens, UniProt Q8N474); assay: Cell-based assay for in vitro measurement of SFRP-1/SARP2 antagonist activity (U2OS cells co-transfected with 16x TCF-tk-Luciferase reporter, Wnt and hSFRP-1); settings: U2OS, single dose, luciferase reporter;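 further: U2OS cells co-transfected with a TCF-tk luciferase reporter, a Wnt vector, hSFRP-1 or empty vector and CMV-βgal, luciferase luminescence read in cell lysates alongside βgal activity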
T1 sequence (Q8N474 32-314): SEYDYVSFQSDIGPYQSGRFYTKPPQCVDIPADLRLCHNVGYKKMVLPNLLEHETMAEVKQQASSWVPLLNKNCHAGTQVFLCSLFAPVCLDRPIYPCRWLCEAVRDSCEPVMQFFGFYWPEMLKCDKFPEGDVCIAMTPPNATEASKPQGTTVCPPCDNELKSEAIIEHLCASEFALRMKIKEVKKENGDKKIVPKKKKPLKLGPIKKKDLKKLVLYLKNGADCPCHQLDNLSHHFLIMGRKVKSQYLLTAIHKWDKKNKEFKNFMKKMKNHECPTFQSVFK

[2] = biological target: T1, SFRP-1; assay: Fluorescence polarization binding assay (competitive displacement of a probe compound from SFRP-1); settings: fluorescence anisotropy, 45 nM SFRP-1, 20 nM probe;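 further: test compound competes with a fluorescent probe held by SFRP-1, seen as a drop in probe anisotropy after incubation in darkness, with anisotropy as function of rising compound dose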
[3] = read-out: Fold Induction with SFRP-1, Conc 15 μM, fold induction over SFRP-1 control, cells with SFRP-1
[4] = read-out: Fold Induction without SFRP-1, Conc 15 μM, cells without SFRP-1 (specificity control)

fold induction at 15 µM [1, 3] | fold induction at 15 µM [1, 4] | IC50 [2] | SMILES
2.2 | 1 | 4000 nM | Cc1ccc(S(=O)(=O)c2ccccc2)cc1S(=O)(=O)NC1CCN(C(=O)CC(C)(C)C)CC1 [Example 504, N-[1-(3,3-dimethylbutanoyl)piperidin-4-yl]-2-methyl-5-(phenylsulfonyl)benzenesulfonamide]
2.3 | 1 | 700 nM | CC(C)c1ccc(S(=O)(=O)c2cc(Cl)cc(Cl)c2)cc1S(=O)(=O)NCCc1ccccn1 [Example 505, 5-[(3,5-dichlorophenyl)sulfonyl]-2-isopropyl-N-(2-pyridin-2-ylethyl)benzenesulfonamide]
2.7 | 1 | 2400 nM | CC(C)c1ccc(S(=O)(=O)c2cccc(OC(F)(F)F)c2)cc1S(=O)(=O)NCCc1ccccn1 [Example 506, 2-isopropyl-N-(2-pyridin-2-ylethyl)-5-{[3-(trifluoromethoxy)phenyl]sulfonyl}benzenesulfonamide]
2.7 | 0.9 | 500 nM | CC(C)c1ccc(S(=O)(=O)c2ccc(N(C)C)cc2)cc1S(=O)(=O)NCCc1ccccn1 [Example 507, 5-{[4-(dimethylamino)phenyl]sulfonyl}-2-isopropyl-N-(2-pyridin-2-ylethyl)benzenesulfonamide]
2.3 | 0.9 | 1300 nM | CC(C)c1ccc(S(=O)(=O)c2cccc(C(F)(F)F)c2)cc1S(=O)(=O)NCCc1ccccn1 [Example 508, 2-isopropyl-N-(2-pyridin-2-ylethyl)-5-{[3-(trifluoromethyl)phenyl]sulfonyl}benzenesulfonamide]
1.9 | 1 | 1200 nM | COc1ccc(Cl)cc1S(=O)(=O)c1ccc(C(C)C)c(S(=O)(=O)NCCc2ccccn2)c1 [Example 509, 5-[(5-chloro-2-methoxyphenyl)sulfonyl]-2-isopropyl-N-(2-pyridin-2-ylethyl)benzenesulfonamide]
1.9 | 1.1 | 900 nM | CC(C)c1ccc(S(=O)(=O)c2cccc3cccnc23)cc1S(=O)(=O)NCCc1ccccn1 [Example 510, 2-isopropyl-N-(2-pyridin-2-ylethyl)-5-(quinolin-8-ylsulfonyl)benzenesulfonamide]
2.8 | 0.9 | 1800 nM and 2300 nM | CC(C)c1ccc(S(=O)(=O)c2cc(Cl)sc2Cl)cc1S(=O)(=O)NCCc1ccccn1 [Example 511, 5-[(2,5-dichloro-3-thienyl)sulfonyl]-2-isopropyl-N-(2-pyridin-2-ylethyl)benzenesulfonamide]
3.1 | 1.1 | 1000 nM | Cc1nn(C)c(Cl)c1S(=O)(=O)c1ccc(C(C)C)c(S(=O)(=O)NCCc2ccccn2)c1 [Example 512, 5-[(5-chloro-1,3-dimethyl-1H-pyrazol-4-yl)sulfonyl]-2-isopropyl-N-(2-pyridin-2-ylethyl)benzenesulfonamide]
2.2 | 1.2 | 6000 nM | CC(C)c1ccc(S(=O)(=O)c2cn(C)cn2)cc1S(=O)(=O)NCCc1ccccn1 [Example 513, 2-isopropyl-5-[(1-methyl-1H-imidazol-4-yl)sulfonyl]-N-(2-pyridin-2-ylethyl)benzenesulfonamide]
2.6 | 1 | 700 nM | Cc1c(Cl)cccc1S(=O)(=O)c1ccc(C(C)C)c(S(=O)(=O)NCCc2ccccn2)c1 [Example 514, 5-[(3-chloro-2-methylphenyl)sulfonyl]-2-isopropyl-N-(2-pyridin-2-ylethyl)benzenesulfonamide]
3 | 1 | 2600 nM | Cc1ccc(S(=O)(=O)c2ccccc2)cc1S(=O)(=O)NC1CCN(C(=O)c2cccnc2)CC1 [Example 516, 2-methyl-5-(phenylsulfonyl)-N-[1-(pyridin-3-ylcarbonyl)piperidin-4-yl]benzenesulfonamide]
2.2 | 1 | 1600 nM | CC(C)c1ccc(S(=O)(=O)c2ccc(F)cc2)cc1S(=O)(=O)NC1CCN(C(=O)OC(C)(C)C)CC1 [Example 517, tert-butyl 4-[({5-[(4-fluorophenyl)sulfonyl]-2-isopropylphenyl}sulfonyl)amino]piperidine-1-carboxylate]
3 | 1.2 | 500 nM | CC(C)c1ccc(S(=O)(=O)c2ccc(F)cc2)cc1S(=O)(=O)NC1CCN(S(=O)(=O)c2cccc3c(N(C)C)cccc23)CC1 [Example 518, N-(1-{[5-(dimethylamino)-1-naphthyl]sulfonyl}piperidin-4-yl)-5-[(4-fluorophenyl)sulfonyl]-2-isopropylbenzenesulfonamide]
3 | 0.9 | 800 nM | COCC(=O)N1CCC(NS(=O)(=O)c2cc(S(=O)(=O)c3ccc(F)cc3)ccc2C(C)C)CC1 [Example 519, 5-[(4-fluorophenyl)sulfonyl]-2-isopropyl-N-[1-(methoxyacetyl)piperidin-4-yl]benzenesulfonamide]
3.3 | 1.1 | 2400 nM | CC(C)c1ccc(S(=O)(=O)c2ccc(F)cc2)cc1S(=O)(=O)NC1CCNCC1 [Example 520, 5-[(4-fluorophenyl)sulfonyl]-2-isopropyl-N-piperidin-4-ylbenzenesulfonamide]
2.1 | 1 | 3000 nM | CC(C)c1ccc(S(=O)(=O)c2ccc(F)cc2)cc1S(=O)(=O)NC1CCCC1 [Example 523, N-cyclopentyl-5-[(4-fluorophenyl)sulfonyl]-2-isopropylbenzenesulfonamide]
2.1 | 1.1 | 1000 nM | CC(C)c1ccc(S(=O)(=O)c2ccc(F)cc2)cc1S(=O)(=O)NC1CCN(Cc2ccccc2)CC1 [Example 525, N-(1-benzylpiperidin-4-yl)-5-[(4-fluorophenyl)sulfonyl]-2-isopropylbenzenesulfonamide]
2.1 | 1.1 | 500 nM | CCOC(=O)N1CCC(NS(=O)(=O)c2cc(S(=O)(=O)c3ccc(F)cc3)ccc2C(C)C)CC1 [Example 526, ethyl 4-[({5-[(4-fluorophenyl)sulfonyl]-2-isopropylphenyl}sulfonyl)amino]piperidine-1-carboxylate]
2.5 | 1.1 | 300 nM | CNc1ccc(S(=O)(=O)c2ccc(C(C)C)c(S(=O)(=O)NC3CCN(C(=O)OC(C)(C)C)CC3)c2)cc1 [Example 528, tert-butyl 4-{[(2-isopropyl-5-{[4-(methylamino)phenyl]sulfonyl}phenyl)sulfonyl]amino}piperidine-1-carboxylate]
2.8 | 1 | 500 nM | CC(=O)N1CCC(NS(=O)(=O)c2cc(S(=O)(=O)c3ccc(F)cc3)ccc2C(C)C)CC1 [Example 529, N-(1-acetylpiperidin-4-yl)-5-[(4-fluorophenyl)sulfonyl]-2-isopropylbenzenesulfonamide]
3 | 1 | 700 nM | CC(C)c1ccc(S(=O)(=O)c2ccc(F)cc2)cc1S(=O)(=O)NC1CCN(C(=O)C2CC2)CC1 [Example 530, N-[1-(cyclopropylcarbonyl)piperidin-4-yl]-5-[(4-fluorophenyl)sulfonyl]-2-isopropylbenzenesulfonamide]
2.5 | 1.1 | 400 nM | CC(C)c1ccc(S(=O)(=O)c2ccc(F)cc2)cc1S(=O)(=O)NC1CCN(C(=O)c2ccc(C#N)cc2)CC1 [Example 531, N-[1-(4-cyanobenzoyl)piperidin-4-yl]-5-[(4-fluorophenyl)sulfonyl]-2-isopropylbenzenesulfonamide]
2.8 | 1.1 | 4000 nM | CC(C)c1ccc(S(=O)(=O)c2ccc(F)cc2)cc1S(=O)(=O)NCC1CCCO1 (stereo not drawn) [Example 532, 5-[(4-fluorophenyl)sulfonyl]-2-isopropyl-N-(tetrahydrofuran-2-ylmethyl)benzenesulfonamide]
3.7 | 1.1 | 500 nM | CC(C)c1ccc(S(=O)(=O)c2ccc(F)cc2)cc1S(=O)(=O)NCCc1ccncc1 [Example 533, 5-[(4-fluorophenyl)sulfonyl]-2-isopropyl-N-(2-pyridin-4-ylethyl)benzenesulfonamide]
4 | 1.1 | 200 nM and 300 nM | CC(C)c1ccc(S(=O)(=O)c2ccc(F)cc2)cc1S(=O)(=O)NCCc1cccnc1 [Example 534, 5-[(4-fluorophenyl)sulfonyl]-2-isopropyl-N-(2-pyridin-3-ylethyl)benzenesulfonamide]
3.8 | 1.2 | 400 nM | CC(C)c1ccc(S(=O)(=O)c2ccc(NCCC#N)cc2)cc1S(=O)(=O)NC1CCOCC1 [Example 535, 5-({4-[(2-cyanoethyl)amino]phenyl}sulfonyl)-2-isopropyl-N-(tetrahydro-2H-pyran-4-yl)benzenesulfonamide]
